# Reference: patent US20250381183A1, “TARGETING S100A9-ALDH1A1-RETINOIC ACID SIGNALING TO SUPPRESS BRAIN RELAPSE IN EGFR-MUTANT LUNG CANCER” (The Trustees of Columbia University in the City of New York, priority 2022, published 2025)
# Columns and labels:
# [1] = tested on: H1650-Tr-BrM cells; assay: Treatment of H1650-Tr-BrM brain metastasis in mice with AGN194310 and/or osimertinib; conditions: 0.5 mg/kg body weight/day, five days per week from day 25 to 7 weeks, vs vehicle and osimertinib alone
# [2] = tested on: H1975; assay: Cell viability assay, sensitivity to pan-RAR inhibition, H1975; type: cell-based, human; conditions: H1975, lacks S100A9 and ALDH1A1 expression
# Protocol: (§1) FIG. 13C: Cell viability assay for comparing in-vitro sensitivity of the indicated cell lines to pan-RAR-inhibition (AGN194310, abbreviated as “AGN”). Cell viability values are normalized to the vehicle (DMSO)-treated control, presented as the mean values±SEM, and representative of three independent experiments. P-values were determined by two-way ANOVA with Tukey's test.
# [3] = tested on: PC9-derivatives; assay: Lung orthotopic (intrathoracic) implantation, PC9-derivatives, AGN194310 treatment; type: in vivo, mice; conditions: PC9-derived, directly implanted in the lung, treated 2 weeks
# [4] = tested on: H1650-derivatives; assay: Lung orthotopic (intrathoracic) implantation, H1650-derivatives, AGN194310 treatment; type: in vivo, mice; conditions: H1650-derived, directly implanted in the lung, treated 2 weeks
# Protocol: FIG. 12K: Schematic representation of the experimental protocol for lung orthotopic injections. H1650-Tr-BrM-lung derivatives stably expressing either Lenti-Con, S100A9i, ALDH1A1i, or S100A9i plus ALDH1A1 o/e were injected in the lung (intrathoracic injections, labeled as “lung orthotopic injection” in the figure). Mice were euthanized at 21 days post tumor-cell injection for analysis.
# FIG. 13P-FIG. 13Q: Violin plots depicting normalized photon flux of lung measured by bioluminescence imaging of mice. […] For panel (p): n=8 for Veh, and n=11 for Pan-RARi. For panel (q): n=7 for Veh, and n=8 for Pan-RARi.
# [5] = tested on: HCC4006; assay: Cell viability assay, sensitivity to pan-RAR inhibition, HCC4006; type: cell-based, human; conditions: HCC4006, lacks S100A9 and ALDH1A1 expression
# Protocol: as §1
# [6] = tested on: RAR target gene STRA6; assay: STRA6 expression by qRT-PCR in H1650-Tr-BrM cells; type: cell-based, human; conditions: two days; for inhibition of retinol-induced STRA6 expression: 5 μM retinol and 5 μM antagonist
# Protocol: (§2) FIG. 13A-FIG. 13B: STRA6 expression was determined by qRT-PCR analysis of Tr-BrM cells from the PC9 model (13(a)) and H1650 model (13(b)), which were treated with either DMSO, retinol or retinol plus different retinoic acid receptor antagonists. Cells were cultured for two days in serum-free RPMI medium with DMSO alone, with 5 μM retinol alone, or medium with both 5 μM retinol and 5 μM antagonists (either the RAR-α antagonist BMS-195614, the RAR-γ antagonist MM-11253, or the pan-RAR antagonist AGN-194310). After two days of culturing, cells were washed and collected for RNA analysis. GAPDH was measured as an internal control. […] For the PC9 model in 13(a), n=8 for vehicle; n=5 for retinol; n=3 for retinol plus the RAR-alpha inhibitor (“RAR-α-inh.”); n=3 for retinol plus the RAR-gamma inhibitor (“RAR-γ-inh.”); n=4 for retinol plus the pan-RAR inhibitor (“pan-RAR-inh.”). For the H1650 model in 13(b), n=7 for all groups.
# [7] = tested on: RAR target gene STRA6; assay: STRA6 expression by qRT-PCR in PC9-Tr-BrM cells; type: cell-based, human; conditions: two days; for inhibition of retinol-induced STRA6 expression: 5 μM retinol and 5 μM antagonist
# Protocol: as §2
# [8] = tested on: PC9-Tr-BrM cells; assay: Treatment of PC9-Tr-BrM brain metastasis in mice with AGN194310 and/or osimertinib; conditions: 0.5 mg/kg body weight/day, five days per week from day 25 to 7 weeks, vs vehicle and osimertinib alone
# [9] = tested on: phospho-EGFR (Tyr1068), phospho-ERK (Thr202/Tyr204); conditions: PC9-BrM and PC9-Tr-BrM, 6 hours post-treatment, similar in both
# Source text: Antibodies against phospho-EGFR (Tyr1068), phospho-ERK (Thr202/Tyr204), total-EGFR, total-ERK and □-actin (loading control) were used. Data are representative of three independent experiments.
# [10] = tested on: EGFR-mutant lung cancer; conditions: cited from earlier work
# [11] = tested on: PC9-Tr-BrM cells; assay: PC9-Tr-BrM (osimertinib-refractory) brain metastasis mouse model, vehicle or osimertinib; type: in vivo, immunodeficient mice; conditions: PC9-Tr-BrM-injected mice, osimertinib vs vehicle
# Protocol: FIG. 1E: Kaplan-Meier plot for brain-metastasis-progression-free survival of mice injected with PC9-Tr-BrM cells followed by treatment with either vehicle or osimertinib. Data were analyzed using the log-rank test: χ2=1.325, d.f.=1, p-value not significant (ns), n=20 for vehicle-treated mice and 17 for osimertinib-treated mice.
# Mice were euthanized at 7 weeks post tumor-cell injection. Scale bars, 200 μm.
# To understand the underlying mechanisms of brain relapse using this model, we isolated brain metastatic cells from the relapsed brain of osimertinib-treated mice and designated them PC9-Tr-BrM (Treated Brain Metastatic, FIG. 1d).
# [12] = tested on: phospho-EGFR (Tyr1068), phospho-ERK; conditions: H1650-BrM and H1650-Tr-BrM, 6 hours post treatment, similar in both
# Source text: Antibodies against phospho-EGFR (Tyr1068), phospho-ERK, total-EGFR, total-ERK and β-actin (loading control) were used. Data are representative of three independent experiments.
# [13] = tested on: phospho-EGFR (Tyr1068); assay: phospho-EGFR immunostaining of brain sections, PC9-BrM model; type: in vivo, immunodeficient mice; conditions: osimertinib 5 mg/kg/day vs vehicle
# Source text: FIG. 2B: Brain sections from mice injected with PC9-BrM cells described in FIG. 1a-b were immunostained using an antibody against phospho-EGFR (Tyr1068). […] The endpoint for vehicle-treated mice was two months post tumor-cell injection (“Vehicle”). The endpoint for osimertinib-treated mice was 4 months post tumor-cell injection for micrometastases (“Micromet”) and 8 months post tumor-cell injection for relapsed metastatic lesion (“Relapsed Met”). For the osimertinib treatment group, mice were administered osimertinib by oral gavage. At 6 hours post treatment, mice were euthanized, and brain tissues were subsequently processed for histological analysis. Representative images of immunohistochemical staining for phospho-EGFR in brain sections are shown. Arrows point to, and dotted line surrounds, the location of metastatic cells in the brain.
# FIG. 2C: The pEGFR-immunostained brain sections described in panel (b) were quantitated using automated Qu-Path software to count pEGFR-positive cancer cells that were identified by setting a threshold for signal intensity (1+).
# [14] = tested on: H1650-Tr-BrM cells; assay: H1650-Tr-BrM brain metastasis mouse model, vehicle or osimertinib; type: in vivo, immunodeficient mice; conditions: H1650-Tr-BrM-injected mice
# Protocol: . Data were analyzed using the log-rank test: χ2=2.541, d.f.=1, p-value not significant (ns), n=6 for vehicle-treated mice, and n=4 for osimertinib-treated mice.
# . Arrow points to the location of metastatic cells in the brain. Mice were euthanized at 60 days post tumor-cell injection. Scale bars, 200 μm.
# FIG. 8H: Quantitative analysis of the percentage of brain tissue sections covered by metastasis from the experiment described in panel (g). […]; We then isolated brain metastatic cells from the osimertinib-treated mice (designated H1650-Tr-BrM), injected them into the arterial circulation of naive immunodeficient mice and treated the mice with either vehicle or osimertinib.
# [15] = tested on: phospho-EGFR (Tyr1068); assay: phospho-EGFR immunostaining of brain sections, H1650-BrM model; type: in vivo, immunodeficient mice; conditions: osimertinib 5 mg/kg/day vs vehicle
# Source text: FIG. 9D: Brain sections from mice injected with H1650-BrM cells described in FIG. 8g-h were immunostained using an antibody against phospho-EGFR (Tyr1068). […] Mice were then euthanized, and brain tissues were subsequently processed for histological analysis. Representative images of immunohistochemical staining for phospho-EGFR in brain sections are shown. Dotted lines surround the location of metastatic cells in the brain. Scale bars, 100 μm.
# FIG. 9E: The pEGFR-stained brain sections from the H1650-derived model described in panel (d) were quantitated using automated Qu-Path software to count pEGFR-positive cancer cells that were identified by setting a threshold for signal intensity (1+). Data are represented as mean values±SEM.
# [16] = serum-free media, 5 μM retinol alone vs DMSO
compound,measurement,setting,value
CCc1ccc(C2=CC(C)(C)Sc3ccc(C#Cc4ccc(C(=O)O)cc4)cc32)cc1 [AGN-194310],brain metastasis (bioluminescence imaging and CK7 metastasis surface area),[1],striking reduction
same,loss of viability,[2],did not show dose-dependent loss of viability
same,lung lesions (normalized photon flux),[3],modestly reduced
same,lung lesions (normalized photon flux),[4],modestly reduced
same,loss of viability,[5],did not show dose-dependent loss of viability
same,inhibition of retinol-induced STRA6 expression,[6],dramatically reduced
same,inhibition of retinol-induced STRA6 expression,[7],dramatically reduced
same,brain metastasis (bioluminescence imaging and CK7 metastasis surface area),[8],striking reduction
CC1(C)CC=C(c2cnc3ccccc3c2)c2cc(C(=O)Nc3ccc(C(=O)O)cc3)ccc21 [BMS195614],inhibition of retinol-induced STRA6 expression,[6],only modestly inhibited
same,inhibition of retinol-induced STRA6 expression,[7],only modestly inhibited
CC1(C)CCC(C)(C)c2cc(C3(c4ccc5cc(C(=O)O)ccc5c4)SCCS3)ccc21 [MM11253],inhibition of retinol-induced STRA6 expression,[6],only modestly inhibited
same,inhibition of retinol-induced STRA6 expression,[7],only modestly inhibited
C=CC(=O)Nc1cc(Nc2nccc(-c3cn(C)c4ccccc34)n2)c(OC)cc1N(C)CCN(C)C [osimertinib],inhibition of EGFR and ERK phosphorylation,[9],dose-dependent inhibition
same,median progression-free survival (PFS),"[10]; first-line treatment, EGFR-mutant metastatic lung cancer patients",18.9 months
same,patients with CNS progression,[10]; lung cancer patients treated with osimertinib,20%
same,brain-metastasis-progression-free survival,[11],no longer increased
same,inhibition of EGFR and ERK phosphorylation,[12],dose-dependent inhibition
same,p-EGFR in micro- and relapsed-metastatic brain lesions,[13],significantly reduced
same,brain-metastasis-progression-free survival,[14]; osimertinib vs vehicle,no longer prolonged
same,mice with rapid progression to the brain,[14]; vehicle or osimertinib,100%
same,p-EGFR in brain metastatic lesions,[15],significantly reduced
retinal,STRA6 expression,[6]; [16],significantly induced
same,STRA6 expression,[7]; [16],significantly induced
